Patent US20160331783A1, “BISAMIDE COMPOUNDS AS ALLOSTERIC EFFECTORS FOR REDUCING THE OXYGEN-BINDING AFFINITY OF HEMOGLOBIN” (THE GENERAL HOSPITAL CORPORATION, priority 2014, published 2016)
Values joined by “and” are separate entries in the source; they are usually repeats but may differ in a detail not shown here. Equal values may be shown once.

Legend:
[1] = biological target: T1, purified human hemoglobin (Homo sapiens, UniProt P68871); test: Oxygen dissociation curve (ODC) of purified hemoglobin, Hemox analyzer, P50; format: biochemical
T1 construct: For experiments with purified hemoglobin, hemoglobin (20 μM as tetramer) was dissolved in DPBS
Experimental: The ODC of hemoglobin was measured with a Hemox analyzer (TCS Scientific Corporation) at 37° C. For experiments with purified hemoglobin, hemoglobin (20 μM as tetramer) was dissolved in DPBS and antifoam (0.2 vol %, Catalog No. AFA-25, TCS Scientific Corporation) was added to prevent foaming of the sample. Compounds were prepared in DMSO stock solutions then added to hemoglobin. The final concentration of DMSO was adjusted to 5 vol %. For experiments with RBCs, blood was drawn from volunteers into EDTA tubes. The blood was centrifuged for 15 min at 3,000 rpm at 4° C. The supernatant was discarded, and RBCs were washed three times with DPBS, pH 7.4 by dilution to 50% hematocrit. The washed RBCs were then diluted with Hemox solution (mixture of N-[Tris(hydroxymethyl)methyl]-2-aminoethanesulfonic acid (TES, 30 mM), sodium chloride (135 mM), and potassium chloride (5 mM) in water (pH 7.4), TCS Scientific Corporation), and mixed with the test compound stock solutions. When known allosteric effectors NEM (400 μM), 5HMF (2 mM) or formamidine disulfide (400 μM) were mixed with RBCs (20 μM as hemoglobin tetramer) for 1 h at 37° C., P50 was reduced to 8 Torr, 9 Torr, and 9 Torr respectively, which correlated with previous reports (see Garel et al., European Journal of Biochemistry, 1982, 123, 513-519). Data was analyzed by two-tailed, unpaired Student's t test using Microsoft Excel 2007.
A saturating effect on P50 was first determined by adding an increasing concentration of 2,3-DPG and IHP. No increase of P50 of hemoglobin was observed after an addition of a 30-fold molar excess of 2,3-DPG or IHP to hemoglobin. Hemoglobin (20 μM as tetramer) was pre-incubated with either 2,3-DPG (600 μM) or IHP (600 μM) followed by addition of Compound 1 (0, 50, 100, 150 and 200 μM) to the hemoglobin.

RBCs = test: Hemolysis of RBCs / blood on incubation with compound; format: cell-based, human; conditions: compound 20 μM in DPBS with 5% DMSO
[2] = biological target: deoxygenated hemoglobin (deoxyHb) (Homo sapiens, UniProt P68871); test: X-ray crystallography of deoxyHb complexed with Compound 1; format: binding; conditions: PDB 4L7Y, 1.80 Å
Experimental: To obtain unliganded hemoglobin structure in complex with 1, freshly prepared solution of 1 in DMSO was incubated with deoxygenated hemoglobin (deoxyHb) (30-50 mg/mL) for 1 h at a hemoglobin tetramer-1 molar ratio of 1:5, followed by crystallization with a low-salt precipitant (0.2 M sodium acetate trihydrate, 0.1 M sodium cacodylate trihydrate, pH 6.6 and 30% PEG 8000). The crystals were washed in a cryo-protectant solution containing mother liquor and glycerol (3:1 ratio) prior to data collection. The complex crystallized in the orthorhombic space group P21212 with typical cell dimensions a=96 Å, b=98 Å and c=65 Å with one functional tetramer per asymmetric unit.
Diffraction data of all crystals were collected at 100 K with a Rigaku IV ++ image plate detector using a CuKα X-rays (k=1.54 Å) from a MicroMax-007 source fitted with Varimax Confocal optics (Rigaku, The Woodlands, Tex.). The datasets were processed with the d*trek software (Rigaku) and the CCP4 suite of programs.
Initial phase for the deoxyHb-1 complex structure was obtained by a molecular replacement method with the program CNS, using human deoxyHb […] tetramer structure (PDB code 2DN2) as a search model. Subsequent structure refinements were performed with the CNS program. Model building and correction were carried out using the graphic program COOT. […]

Increase of P50 of hemoglobin, dose dependence ([1]; FIG. 3, FIG. 6-7): concentration-dependent | P50 of hemoglobin ([1]; hemoglobin 20 μM tetramer, compound 200 μM, DPBS pH 7.4, 5 vol % DMSO, 37° C., hemoglobin alone 17 Torr): 24 Torr and 24±0.4 Torr | P50 of hemoglobin pre-saturated with 2,3-DPG plus Compound 1 ([1]; hemoglobin 20 μM, 2,3-DPG 600 μM, Compound 1 200 μM): 29±0.5 Torr | Synergistic reduction of oxygen binding affinity in combination with 2,3-DPG ([1]; hemoglobin 20 μM, 2,3-DPG 600 μM, Compound 1 up to 200 μM): synergistic reduction | Synergistic reduction of oxygen binding affinity in combination with IHP ([1]; hemoglobin 20 μM, IHP 600 μM, Compound 1 up to 200 μM): did not induce a synergistic reduction | P50 with purified hemoglobin ([1]; hemoglobin 20 μM, tested compound 120 μM, purified hemoglobin alone 17 Torr): 24 Torr
Structure (SMILES): Cc1cc(C)cc(C(=O)N(C)[C@H](Cc2ccc(-c3ccccc3)cc2)C(=O)N[C@@H](Cc2c[nH]c3ccccc23)C(=O)O)c1 [Compound 1, (S)-2-((R)-3-([1,1′-biphenyl]-4-yl)-2-(N,3,5-trimethylbenzamido)propanamido)-3-(1H-indol-3-yl)propanoic acid]
Hemolysis of RBCs (RBCs): hemolysis | Binding site in deoxyHb crystal structure [2]: non-covalently binds at the β-cleft on the dyad axis
